In patent publication US20250221963A1 (GH RESEARCH IRELAND LIMITED, priority 2022, published 2025):

Experiments:
[1] = system: human hepatocytes; experiment: Metabolic stability in Hμrel co-culture assay with human hepatocytes; details: for Disappearance with stromal cell controls: stromal cells
[2] = system: human hepatocytes; experiment: In vitro metabolism identification study in human hepatocytes; details: for Relative Proportion of compounds identified: 5-MeO-DMT free base incubated up to 120 minutes at 10 μM; for Presence in subsequent assays: metabolites of 5-MeO-DMT
Description: For incubations with cryopreserved hepatocytes, the 2 mM stock solution was diluted with Leibovitz L-15 medium to a concentration of 20 μM or 2 μM. An aliquot (250 μL) of the 20 μM and 2 μM test substance formulations was added to each hepatocyte incubation sample (250 μL), as appropriate, so that the final test substance concentration in the incubations was 10 μM or 1 μM, respectively, and incubations contained less than 1% (v/v) solvent.
Incubations were performed at ca. 37° C. in a shaking water bath (total incubation volume 0.5 mL). For 1 μM, incubations were terminated after 0, 5, 10, 20, 30, 60 and 120 minutes, by the addition of ice-cold acetonitrile (0.5 mL).
The samples were vortex mixed and centrifuged at ca 13,000 rpm for 10 minutes at room temperature. Following centrifugation, the protein-free supernatants were removed for analysis.
Blank control incubations were carried out with Leibovitz L-15 medium in place of the test substance. No cells control samples were performed with Leibovitz L-15 medium in place of hepatocytes. Aliquots of the blank control samples were taken at 120 minutes, while no cells control samples were taken at 0, 30 and 120 for 1 μM incubations and at 0 and 120 minutes for 10 μM incubations.
All 1 μM incubations were performed in duplicate, while all 10 μM incubations were performed in singlet. All samples were stored at −80° C. (nominal) prior to analysis.
Prior to sample analysis a 100 μL aliquot of each sample was evaporated to near dryness under a steady stream of nitrogen at room temperature, and subsequently reconstituted in 50 μL of mobile phase A (0.1% formic acid in water). Each sample (0, 30 and 120-minute, 10 μM) was analysed using accurate mass LC-MS to determine relative levels of parent compound at each time-point, and determine the profile of metabolites formed. Appropriate blank and control samples were also analysed. The 10 and 60-minute, 10 μM incubation samples were not analysed and were stored at −80° C. (nominal).
Data were interrogated for the presence of metabolites by comparison of retention times with the test substance reference standard and based on the accurate masses of potential metabolites using screening software (UNIFI version 1.9.4), and user defined search parameters. To confirm a suspected metabolite, the measured accurate mass of the peak detected in the sample used for structural elucidation had to be within 5 ppm of the theoretical mass in order to confirm the molecular formula.

[3] = system: human plasma protein; experiment: Plasma binding of 5-MIAA; assay type: in vitro ADME
Description: Binding to human plasma protein was determined. Reported are the unbound fraction (fu) for three replicates as well as the mean unbound fraction, the standard deviation and the mean % recovery (Table 8).

[4] = Pharmacokinetics of 5-MeO-DMT and bufotenine after inhalation; assay type: in vivo, human
Description: Blood samples were obtained at 1; 2; 4; 7; 10; 15; 20; 30; 45 min and 1; 1.5; 2; 3; 4 hours after administration.
PK parameters were generated by algebraic analysis of the concentration versus time plots for each individual. The analysis was carried out using the software Phoenix WinNonlin 6.3.

| SMILES | Disappearance with stromal cell controls [1] | Relative Proportion of compounds identified [2] [%] | Presence in subsequent assays [2] | Unbound fraction (fu) ([3]; Replicate 1) | Unbound fraction (fu) ([3]; Replicate 2) | Unbound fraction (fu) ([3]; Replicate 3) | other results |
| --- | --- | --- | --- | --- | --- | --- | --- |
| COc1ccc2[nH]cc(CC(=O)O)c2c1 [5-MIAA, 5-methoxyindole-3-acetic acid] | no disappearance | 61 | predominant metabolite | 0.499 | 0.462 | 0.544 | Half-life ([1]; human hepatocytes, 1 μM): 15 400 min; In vitro intrinsic clearance ([1]; human hepatocytes, 1 μM): 0.15 μl/min/million cells; Plasma binding (mean fraction unbound) [3]: ~50%; Time until all traces are removed from circulation for urinary excretion ([3]; assuming glomerular filtration rate of 90-120 ml/min): 1 to 2 h; Mean fu ([3]; three replicates): 0.502 |
| COc1ccc2[nH]cc(CC[N+](C)(C)[O-])c2c1 [5-MeO-DMT-N-oxide] | – | 1 | – | – | – | – | – |
| COc1ccc2[nH]cc(CCO)c2c1 [5-methoxytryptophol, 5-Methoxyindole-3-ethanol] | no disappearance | 25 | repeatedly failed to detect the presence | – | – | – | Time to complete disappearance ([1]; in the presence of hepatocytes): 24 h |
| CC(=O)CC(c1ccccc1)c1c(O)c2ccccc2oc1=O (stereo not shown) [Warfarin, reference compound] | – | – | – | 0.0418 | 0.0356 | 0.0358 | – |
| CN(C)CCc1c[nH]c2ccc(O)cc12 [bufotenine] | – | 5 | – | – | – | – | Detection in human serum ([4]; after administration of 5-MeO-DMT): barely detected; Bufotenine blood concentration ([4]; from 15 min onwards after 5-MeO-DMT, LLOQ): < 25 pg/mL |
